Measurements taken from patent US10829520B2, “Beta-hairpin peptidomimetics” (POLYPHOR AG, priority 2015, dated 2020).
Where a SMILES comes first, the peptide text is derived from it. Bridges are numbered along the chain shown (N, C = ends). Roman numbers before positions name the chains, in order. [ ]: non-standard residue; d: D form. NMeW = CN[C@@H](Cc1c[nH]c2ccccc12)C(=O)O; Tle = CC(C)(C)[C@H](N)C(=O)O; dDab = NCC[C@@H](N)C(=O)O; Nle = CCCC[C@H](N)C(=O)O; Orn = NCCC[C@H](N)C(=O)O; Dab = NCC[C@H](N)C(=O)O; dAze = O=C(O)[C@H]1CCN1; Dap = NC[C@H](N)C(=O)O; Sar = CNCC(=O)O

Key:
Type in all cases: cell-based
[1] = tested on: Acinetobacter baumannii DSM 30008; settings: DSM 30008
Outline: (§1)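 CLSI broth microdilution; MH-II (cation-adjusted) + 0.002% P-80; ~10^6 CFU/mL inoculum; peptide two-fold serial dilutions; 18-20 h, 35° C; MIC = no visible growth, μg/mL.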

Escherichia coli 926415 = settings: 926415
[2] = tested on: Acinetobacter baumannii 872842; settings: 872842
[3] = tested on: Klebsiella pneumoniae SSI #3010; settings: SSI #3010
Outline: as §1

[4] = tested on: Klebsiella pneumoniae 968733; settings: 968733
[5] = tested on: Escherichia coli ATCC 25922; settings: ATCC 25922
Outline: as §1

[6] = tested on: Pseudomonas aeruginosa ATCC 27853; settings: ATCC 27853
Outline: as §1

[7] = tested on: human red blood cells (hRBC); test: Hemolysis of human red blood cells; settings: red cells of human, 1 h
Outline: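 Each peptide was tested at a single concentration, 100 μg/mL. Erythrocytes (20% v/v) were incubated 1 h at 37° C. under shaking at 300 rpm, centrifuged, and released hemoglobin measured at OD540. Controls were PBS containing 0.001% acetic acid (0%) and Triton X-100 (100%).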

| Acinetobacter baumannii DSM 30008 MIC [1] | Escherichia coli 926415 MIC (Escherichia coli 926415) | Acinetobacter baumannii 872842 MIC [2] | Klebsiella pneumoniae SSI #3010 MIC [3] | Klebsiella pneumoniae 968733 MIC [4] | Escherichia coli ATCC 25922 MIC [5] | Pseudomonas aeruginosa ATCC 27853 MIC [6] | Structure (SMILES) | Hemolysis at 100 μg/mL [7]; 100 | Hemolysis at 100 μg/mL ([7]; 100 μg/mL) |
| --- | --- | --- | --- | --- | --- | --- | --- | --- | --- |
| 0.5 µg/mL | 0.5 µg/mL | 2 µg/mL | 0.5 µg/mL | 2 µg/mL | 0.25 µg/mL | 1 µg/mL | CCCC[C@@H]1NC(=O)[C@@H]2CCCN2C(=O)[C@H]2CCCN2C(=O)[C@H](CO)NC(=O)[C@H](C)NC(=O)[C@H](C(C)(C)C)NC(=O)[C@H](CCN)NC(=O)[C@H](Cc2c[nH]c3ccccc23)NC(=O)[C@@H](NC(C)=O)CCNC(=O)CC[C@@H](C(=O)N[C@@H](CCN)C(=O)N[C@H]2CCNC(=O)[C@H]([C@@H](C)O)NC(=O)[C@H](CCN)NC(=O)[C@H](CCN)NC(=O)[C@H](CC(C)C)NC(=O)[C@@H](Cc3ccccc3)NC(=O)[C@H](CCN)NC2=O)NC(=O)[C@H](CCCN)NC(=O)[C@H](CCN)NC(=O)[C@H](Cc2ccc(O)cc2)NC(=O)[C@H](CO)NC1=O [Ex. 59] (Ac-[Dab]W[Dab][Tle]AS[dP]P[Nle]SY[Dab][Orn]E[Dab][Dab][Dab][dF]L[Dab][Dab]T; lactam 1-14, 16-C) | <1% |  |
| 1 µg/mL | 2 µg/mL | 1 µg/mL | 2 µg/mL | 8 µg/mL | 1 µg/mL | 1 µg/mL | CC(C)C[C@@H]1NC(=O)[C@@H](CC(C)C)NC(=O)[C@H](CCN)NC(=O)[C@@H](NC(=O)[C@H](CCN)NC(=O)[C@@H](NC(=O)[C@H](CCN)NC(=O)CC[C@@H]2NC(=O)[C@H](CCN)NC(=O)[C@H](Cc3ccc(O)cc3)NC(=O)[C@H](CN)NC(=O)[C@H](C(C)C)NC(=O)[C@@H]3CCCN3C(=O)[C@H]3CCCN3C(=O)[C@H](CO)NC(=O)[C@H](C)NC(=O)[C@H](C(C)C)NC(=O)[C@H](CCN)NC(=O)[C@H](Cc3c[nH]c4ccccc34)NC(=O)[C@H](CCN)NC(=O)[C@@H](CCN)NC2=O)[C@@H](C)O)CCNC(=O)[C@H]([C@@H](C)O)NC(=O)[C@H](CCN)NC(=O)[C@H](CCN)NC1=O [Ex. 85] (I: cyclo(V[Dap]Y[Dab]E[dDab][Dab]W[Dab]VAS[dP]P) / II: [Dab]T[Dab][Dab][Dab][dL]L[Dab][Dab]T; amide I:5-II:N; lactam II:4-II:C) | <1% |  |
| 0.03125 µg/mL | 0.0625 µg/mL | 0.5 µg/mL | 0.0625 µg/mL | 0.25 µg/mL | 0.03125 µg/mL | 0.25 µg/mL | CN[C@@H](Cc1c[nH]c2ccccc12)C(=O)N[C@@H](CCN)C(=O)N[C@H](C(=O)N[C@H]1CC(=O)NCC[C@@H](C(=O)N[C@@H](Cc2ccc(O)cc2)C(=O)N[C@@H](CCN)C(=O)N(C)CC(=O)N[C@@H](CCN)C(=O)N[C@H](C(=O)N[C@@H](CCN)C(=O)N[C@H]2CCNC(=O)[C@H]([C@@H](C)O)NC(=O)[C@H](CCN)NC(=O)[C@H](CCN)NC(=O)[C@H](CC(C)C)NC(=O)[C@@H](CC(C)C)NC(=O)[C@H](CCN)NC2=O)[C@@H](C)O)NC(=O)[C@H](C(C)C)NC(=O)[C@@H]2CCCN2C(=O)[C@H]2CCN2C(=O)[C@H]([C@@H](C)O)NC1=O)C(C)(C)C [Ex. 176] (H-[NMeW][Dab][Tle]DT[dAze]PV[Dab]Y[Dab][Sar][Dab]T[Dab][Dab][Dab][dL]L[Dab][Dab]T; lactam 4-9, 16-C) | <1% |  |
| 0.5 µg/mL | 0.5 µg/mL | 1 µg/mL | 0.5 µg/mL | 2 µg/mL | 2 µg/mL | 0.5 µg/mL | CCCC[C@@H]1NC(=O)[C@@H]2CCCN2C(=O)[C@H]2CCCN2C(=O)[C@H](CO)NC(=O)[C@H](C)NC(=O)[C@H](C(C)(C)C)NC(=O)[C@H](CCN)NC(=O)[C@H](Cc2c[nH]c3ccccc23)NC(=O)[C@H](CCN)NC(=O)[C@@H](CCC(=O)N[C@H](C(=O)N[C@@H](CCN)C(=O)N[C@H]2CCNC(=O)[C@H]([C@@H](C)O)NC(=O)[C@H](CCN)NC(=O)[C@H](CCN)NC(=O)[C@H](CC(C)C)NC(=O)[C@@H](Cc3ccccc3)NC(=O)[C@H](CCN)NC2=O)[C@@H](C)O)NC(=O)[C@H](CCCN)NC(=O)[C@H](CCN)NC(=O)[C@H](Cc2ccc(O)cc2)NC(=O)[C@H](CO)NC1=O [Ex. 5] (I: cyclo([Nle]SY[Dab][Orn][dE][Dab]W[Dab][Tle]AS[dP]P) / II: T[Dab][Dab][Dab][dF]L[Dab][Dab]T; amide I:6-II:N; lactam II:3-II:C) | 1% |  |

| Structure (SMILES) | Acinetobacter baumannii DSM 30008 MIC [1] | Escherichia coli 926415 MIC (Escherichia coli 926415) | Acinetobacter baumannii 872842 MIC [2] | Klebsiella pneumoniae SSI #3010 MIC [3] | Klebsiella pneumoniae 968733 MIC [4] | Escherichia coli ATCC 25922 MIC [5] | Pseudomonas aeruginosa ATCC 27853 MIC [6] | Hemolysis at 100 μg/mL [7]; 100 | Hemolysis at 100 μg/mL ([7]; 100 μg/mL) |
| --- | --- | --- | --- | --- | --- | --- | --- | --- | --- |
| CC(C)C[C@@H]1NC(=O)[C@@H](CC(C)C)NC(=O)[C@H](CCN)NC(=O)[C@@H](NC(=O)[C@H](CCN)NC(=O)[C@@H](CCN)NC(=O)[C@@H](NC(=O)[C@H](CCCN)NC(=O)[C@@H]2CSSC[C@H](NC(=O)[C@@H](N)Cc3c[nH]c4ccccc34)C(=O)N[C@@H](C(C)C)C(=O)NCC(=O)N[C@@H](CO)C(=O)N3CCC[C@@H]3C(=O)N3CCC[C@H]3C(=O)N[C@@H](C(C)C)C(=O)N[C@@H](CN)C(=O)N[C@@H](Cc3ccc(O)cc3)C(=O)N2)[C@@H](C)O)CCNC(=O)[C@H]([C@@H](C)O)NC(=O)[C@H](CCN)NC(=O)[C@H](CCN)NC1=O [Ex. 136] (H-WCVGS[dP]PV[Dap]YC[Orn]T[dDab][Dab][Dab][Dab][dL]L[Dab][Dab]T; disulfide 2-11; lactam 16-C) | 1 µg/mL | 0.5 µg/mL | 0.25 µg/mL | 1 µg/mL | 4 µg/mL | 0.5 µg/mL | 0.25 µg/mL |  | <1% |
| CCCC[C@@H]1NC(=O)[C@@H]2CCCN2C(=O)[C@H]2CCCN2C(=O)[C@H](CO)NC(=O)[C@H](C)NC(=O)[C@H](C(C)(C)C)NC(=O)[C@@H](NC(=O)[C@H](Cc2c[nH]c3ccccc23)NC(C)=O)CSSC[C@@H](C(=O)N[C@@H](CCN)C(=O)N[C@@H](CN)C(=O)N[C@H]2CCNC(=O)[C@H]([C@@H](C)O)NC(=O)[C@H](CCN)NC(=O)[C@H](CCN)NC(=O)[C@H](CC(C)C)NC(=O)[C@@H](Cc3ccccc3)NC(=O)[C@H](CCN)NC2=O)NC(=O)[C@H](Cc2ccc(O)cc2)NC(=O)[C@H](CO)NC1=O [Ex. 50] (Ac-WC[Tle]AS[dP]P[Nle]SYC[Dab][Dap][Dab][Dab][dF]L[Dab][Dab]T; disulfide 2-11; lactam 14-C) | 0.25 µg/mL | 0.5 µg/mL | 0.5 µg/mL | 0.25 µg/mL | 2 µg/mL | 0.25 µg/mL | 1 µg/mL |  | 1% |
